From publication PMC9147274 (Pharmaceuticals, 2022)

Tests used:
[1] = Cytotoxicity toward MRC-5, MTT assay; assay type: cell-based; conditions: human, MRC-5 cells, MRC-5 normal cells
Experimental: (§1) DMSO was used as vehicle control. […] All experiments were performed in triplicate. […] Cells were exposed for 48 h.

HL-60 = experiment: Cytotoxicity toward HL-60, XTT assay; assay type: cell-based, human; conditions: for IC50: Homo sapiens, HL-60, XTT, 48 h; for SI (HL-60): (IC50 for MRC-5)/(IC50 for HL-60)
Experimental: as §1
(§2) Table S1 The cytotoxicity of triazole-cored derivatives toward various human lung carcinoma cell lines A549, Thai human cholangiocarcinoma cells HuCCA-1, T-cell acute lymphoblastic leukemia MOLT-3, and acute promyelocytic leukemia HL-60. The inhibitory activities were indicated as IC50 in micromolar scale (µM). The calculated selectivity indices (SI) were reported in square brackets.
(§3) Cancer Cell lines, IC50 (µM), [SI]

MOLT-3 = experiment: Cytotoxicity toward MOLT-3, XTT assay; assay type: cell-based, human; conditions: for SI (MOLT-3): (IC50 for MRC-5)/(IC50 for MOLT-3); for IC50: Homo sapiens, MOLT-3, XTT, 48 h
Experimental: as §1, §2, §3

HepG2 = experiment: Cytotoxicity toward HepG2, MTT assay; conditions: for Selectivity index (SI): IC50 MRC-5 / IC50 HepG2; for IC50: read-out: Cytotoxicity HepG2 IC50, HepG2, MTT; for IC50 / Cytotoxicity HepG2 Cell Viability at 25 µM: 72 h; for Cytotoxicity HepG2 Cell Viability at 25 µM: HepG2, 25 µM, MTT
Experimental: DMSO was used as vehicle control. […] All experiments were performed in triplicate. Data were expressed as the IC50 ± SD. […] Cells were exposed for 48 h.

A549 = experiment: Cytotoxicity toward A549, MTT assay; assay type: cell-based, human; conditions: for IC50: Homo sapiens, A549, MTT, 48 h
Experimental: as §1, §2, §3

HuCCA-1 = experiment: Cytotoxicity toward HuCCA-1, MTT assay; assay type: cell-based, human; conditions: for IC50: Homo sapiens, HuCC-A1, HuCCA-1, MTT, 48 h
Experimental: as §1, §2, §3

HepG2 cells [2] = experiment: Cell-cycle analysis (propidium iodide, flow cytometry); assay type: cell-based, human; conditions: HepG2, 2 µM, 72 h
Experimental: The concentration of DMSO was kept at 0.5% v/v for all conditions. Cells were washed with PBS before they were harvested; 1 × 10^5 Cells were collected and fixed with 70% ice-cold ethanol, and then washed twice with ice-cold PBS. Afterward, the cells were treated with 100 g/mL of DNase-free RNase A (Sigma-Aldrich, St. Louis, MO, USA) in PBS containing 0.1% v/v Triton-X 100 (Sigma-Aldrich, St. Louis, MO, USA) for 5 min at room temperature and then stained with 20 g/mL propidium iodide (Life Technologies, Carlsbad, CA, USA) in PBS containing 0.1% v/v Triton-X 100 for 15 min at room temperature while protected from light. Cell-cycle distribution was then analyzed with a flow cytometer (Attune NxT, Thermo Fischer Scientific, Waltham, MA, USA). Data were analyzed with Attune NxT Software (Thermo Fischer Scientific, Waltham, MA, USA). All experiments were performed in triplicate. Student’s t-test was used for statistical analysis; p < 0.05 was considered statistically significant [96].

HepG2 cells [3] = experiment: Detection of apoptosis (Muse Annexin V & Dead Cell Kit); assay type: cell-based, human; conditions: 48 h; for average percentage of apoptotic cells (total, early and late apoptosis): untreated 22.35 ± 0.07%
Experimental: Based on annexin V reactivity and the intensity of the 7-AAD fluorescence, cells can be classified into four categories: dead, live, early apoptosis, and late apoptosis. […] The detection of apoptosis was performed by the Muse® Annexin V & Dead Cell Kit according to the manufacturer’s protocol (Millipore, Billerica, MA, USA). […] An amount of 100 µL of HepG2 cells in suspension and 100 µL of Muse Annexin V & Dead Cell reagent were added to a 1.5 mL tube. The apoptosis was measured using the Muse cell analyzer and Muse analysis software (Millipore, Billerica, MA, USA). Cells were classified into four groups: live (Annexin V− and 7-AAD−), early apoptosis (Annexin V+ and 7-AAD−), late apoptosis (Annexin V+ and 7-AAD+), and dead or necrotic (Annexin V− and 7-AAD+). The apoptosis experiment was performed in duplicate.

[4] = cited from earlier work
HepG2 cells [5] = experiment: Cell morphology by light microscopy; conditions: 48 h, 2.5-10.0 µM

Row | Structure (SMILES) | IC50 at 48 h [1] | IC50 (HL-60) | IC50 (MOLT-3) | IC50 (A549) | IC50 (HuCCA-1) | further results
1 | COc1ccccc1-n1cc(CNC(=O)Nc2ccc(Cl)c(C(F)(F)F)c2)nn1 [Compound 2q] | 68 ± 5.14 µM | 42.4 ± 2.18 µM | – | – | – | –
2 | O=C(NCc1cn(-c2cccc(Br)c2)nn1)Nc1ccc(Cl)c(C(F)(F)F)c1 [Compound 2i] | 53 ± 3.31 µM | 35.75 ± 0.34 µM | – | – | – | –
3 | COc1ccc(-n2cc(CNC(=O)Nc3ccc(Cl)c(C(F)(F)F)c3)nn2)cc1 [Compound 2s] | 21.2 ± 2.51 µM | > 100 µM | – | – | – | –
4 | Cc1ccccc1-n1cc(CNC(=O)Nc2ccc(Cl)c(C(F)(F)F)c2)nn1 [Compound 2t] | 61.7 ± 3.22 µM | 45 ± 4.03 µM | – | – | – | –
5 | O=C(NCc1cn(-c2ccc(C(F)(F)F)cc2)nn1)Nc1ccc(Cl)c(C(F)(F)F)c1 [Compound 2y, 1-(4-chloro-3-(trifluoromethyl)phenyl)-3-((1-(4-(trifluoromethyl)phenyl)-1H-1,2,3-triazol-4-yl)methyl)urea] | 58.6 ± 3.51 µM | 19.4 ± 0.5 µM | 18.1 ± 0.45 µM | – | – | SI (MOLT-3) (MOLT-3): 3.23; SI (HL-60) (HL-60): 3.02; melting point: 199 to 200 °C; Selectivity index (SI) (HepG2): 9.81; IC50 (HepG2): 5.97 ± 2.14 µM
6 | O=C(NCc1cn(-c2ccc(O)cc2)nn1)Nc1ccc(Cl)c(C(F)(F)F)c1 [Compound 2p] | 69.6 ± 5.66 µM | 32.9 ± 7.77 µM | 22.5 ± 1.85 µM | 85.9 ± 7.24 µM | 87.43 ± 0.79 µM | –
7 | O=C(NCc1cn(-c2ccccc2F)nn1)Nc1ccc(Cl)c(C(F)(F)F)c1 [Compound 2b] | 73.5 ± 9.14 µM | 40.6 ± 4.64 µM | 25.3 ± 1.38 µM | 77.3 ± 1.76 µM | 69.2 ± 19.2 µM | –
8 | CNC(=O)c1cc(Oc2ccc(NC(=O)Nc3ccc(Cl)c(C(F)(F)F)c3)cc2)ccn1 [Sorafenib] | 19.7 ± 1.68 µM | 5.35 ± 0.38 µM | – | 19.65 ± 0.01 µM | 33.2 ± 1.45 µM | Effect on cell cycle (HepG2 cells [2]): induced S and G2/M phase cell-cycle arrest; Late Apop./Dead (late stage apoptotic cells) (HepG2 cells [3]; HepG2, 2.5 µM): 7.60%; average percentage of apoptotic cells (total, early and late apoptosis) (HepG2 cells [3]; HepG2, 2.5 µM): 24.55 ± 0.28%; Late Apop./Dead (late stage apoptotic cells) (HepG2 cells [3]; HepG2, 10.0 µM): 13.65%; average percentage of apoptotic cells (total, early and late apoptosis) (HepG2 cells [3]; HepG2, 10.0 µM): 46.45 ± 0.78%; bioavailability [4]: 38–49%; Cell morphology changes of HepG2 (HepG2 cells [5]): cell morphology changes (shrink and smaller in size) were observed after treating HepG2 with Sorafenib at 5.0 µM and 10.0 µM; IC50 (HepG2): 5.97 ± 0.71 µM
9 | O=C(NCc1cn(-c2ccccc2F)nn1)Nc1ccc(Cl)c(C(F)(F)F)c1 [Compound 2b, 1-(4-chloro-3-(trifluoromethyl)phenyl)-3-((1-(2-fluorophenyl)-1H-1,2,3-triazol-4-yl)methyl)urea] | – | – | – | – | – | melting point: 168 to 169 °C
10 | O=C(NCc1cn(-c2ccc(Br)cc2)nn1)Nc1ccc(Cl)c(C(F)(F)F)c1 [Compound 2j] | 60.7 ± 1.88 µM | 76 ± 22.6 µM | 53.4 ± 24.3 µM | 33.8 ± 2.29 µM | 10.8 ± 0.36 µM | –
11 | N#Cc1ccccc1-n1cc(CNC(=O)Nc2ccc(Cl)c(C(F)(F)F)c2)nn1 [Compound 2z, 1-(4-chloro-3-(trifluoromethyl)phenyl)-3-((1-(2-cyanophenyl)-1H-1,2,3-triazol-4-yl)methyl)urea] | 59.7 ± 6.63 µM | 56.4 ± 10.9 µM | – | – | – | SI (HL-60) (HL-60): 1.06; melting point: 162 to 163 °C; Cytotoxicity HepG2 Cell Viability at 25 µM (HepG2): 66%
12 | O=C(NCc1cn(-c2cccc(F)c2)nn1)Nc1ccc(Cl)c(C(F)(F)F)c1 [Compound 2c] | 61.6 ± 3.63 µM | 34.1 ± 11.3 µM | 18.4 ± 0.36 µM | 69.4 ± 2.44 µM | 44.9 ± 3.84 µM | –
13 | O=C(NCc1cn(-c2ccccc2Br)nn1)Nc1ccc(Cl)c(C(F)(F)F)c1 [Compound 2h] | 52.9 ± 3.1 µM | 37.7 ± 3.88 µM | – | – | – | –
14 | O=C(NCc1cn(-c2ccccc2)nn1)Nc1ccc(Cl)c(C(F)(F)F)c1 [Compound 2a] | > 100 µM | > 100 µM | > 100 µM | > 100 µM | > 100 µM | –
15 | COc1cccc2c1C(=O)c1c(O)c3c(c(O)c1C2=O)C[C@@](O)(C(=O)CO)C[C@@H]3O[C@H]1C[C@H](N)[C@H](O)[C@H](C)O1 [Doxorubicin, reference compound] | 2.26 µM | 0.12 ± 0.02 µM | 0.01 µM | 0.47 ± 0.02 µM | 1.21 ± 0.04 µM | SI (A549) (A549; (IC50 for MRC-5)/(IC50 for A549)): 4.81; SI (HuCCA-1) (HuCCA-1; (IC50 for MRC-5)/(IC50 for HuCCA-1)): 1.87; SI (MOLT-3) (MOLT-3): 226; SI (HL-60) (HL-60): 18.83; Selectivity index (SI) (HepG2): 3.83; IC50 (HepG2): 0.59 ± 0.1 µM
16 | COc1cccc(-n2cc(CNC(=O)Nc3ccc(Cl)c(C(F)(F)F)c3)nn2)c1 [Compound 2r] | 76.1 ± 9.18 µM | 42.8 ± 1.95 µM | – | – | – | –
17 | Cc1cccc(-n2cc(CNC(=O)Nc3ccc(Cl)c(C(F)(F)F)c3)nn2)c1 [Compound 2u] | – | > 100 µM | – | – | – | –
18 | O=C(NCc1cn(-c2cccc(I)c2)nn1)Nc1ccc(Cl)c(C(F)(F)F)c1 [Compound 2l] | 49.2 ± 2.13 µM | 33.2 ± 0.58 µM | – | – | – | –
19 | O=C(NCc1cn(-c2ccccc2Cl)nn1)Nc1ccc(Cl)c(C(F)(F)F)c1 [Compound 2e] | 61.4 ± 3.51 µM | 52.1 ± 13.9 µM | – | – | – | –
20 | O=C(NCc1cn(-c2ccccc2C(F)(F)F)nn1)Nc1ccc(Cl)c(C(F)(F)F)c1 [Compound 2w] | 58.8 ± 0.39 µM | 34.5 ± 0.73 µM | 30.6 ± 0.8 µM | – | – | –
21 | O=C(NCc1cn(-c2ccc(I)cc2)nn1)Nc1ccc(Cl)c(C(F)(F)F)c1 [Compound 2m] | 49.9 ± 6.61 µM | 49.8 ± 7.19 µM | 29.9 ± 1.51 µM | – | – | –
22 | O=C(NCc1cn(-c2cccc(Cl)c2)nn1)Nc1ccc(Cl)c(C(F)(F)F)c1 [Compound 2f] | 63.8 ± 3.53 µM | 37.5 ± 2.23 µM | – | – | – | –
23 | O=C(NCc1cn(-c2cccc(O)c2)nn1)Nc1ccc(Cl)c(C(F)(F)F)c1 [Compound 2o] | – | 39.2 ± 2.72 µM | 28.3 ± 4.51 µM | – | – | –
24 | CC(=O)Nc1ccc(-n2cc(CNC(=O)Nc3ccc(Cl)c(C(F)(F)F)c3)nn2)cc1 [Compound 2u, N-(4-(4-((3-(4-chloro-3-(trifluoromethyl)phenyl)ureido)methyl)-1H-1,2,3-triazol-1-yl)phenyl)acetamide] | – | – | – | – | – | melting point: 238 to 239 °C
25 | O=C(NCc1cn(-c2cccc(C(F)(F)F)c2)nn1)Nc1ccc(Cl)c(C(F)(F)F)c1 [Compound 2x, 1-(4-chloro-3-(trifluoromethyl)phenyl)-3-((1-(3-(trifluoromethyl)phenyl)-1H-1,2,3-triazol-4-yl)methyl)urea] | 63.2 ± 1.57 µM | 28.8 ± 7.46 µM | 27.8 ± 4.56 µM | – | – | SI (MOLT-3) (MOLT-3): 2.28; SI (HL-60) (HL-60): 2.19; melting point: 152 to 153 °C; Cytotoxicity HepG2 Cell Viability at 25 µM (HepG2): 81%
26 | O=C(NCc1cn(-c2ccccc2I)nn1)Nc1ccc(Cl)c(C(F)(F)F)c1 [Compound 2k] | 49.1 ± 2.95 µM | 37.4 ± 2.36 µM | – | – | – | –
27 | O=C(NCc1cn(-c2ccc(Cl)cc2)nn1)Nc1ccc(Cl)c(C(F)(F)F)c1 [Compound 2g] | 14.6 ± 4.17 µM | > 100 µM | > 100 µM | 83 ± 2.7 µM | 33.6 ± 1.83 µM | –
28 | Cc1ccc(-n2cc(CNC(=O)Nc3ccc(Cl)c(C(F)(F)F)c3)nn2)cc1 [Compound 2v] | 99.9 ± 0.9 µM | > 100 µM | 91.1 ± 1.66 µM | – | – | –
29 | O=C(NCc1cn(-c2ccc(F)cc2)nn1)Nc1ccc(Cl)c(C(F)(F)F)c1 [Compound 2d] | 59.3 ± 1.96 µM | 35 ± 9.04 µM | 20.5 ± 1.23 µM | 57.4 ± 8.36 µM | 55.4 ± 6.49 µM | –
30 | O=C(NCc1cn(-c2ccccc2O)nn1)Nc1ccc(Cl)c(C(F)(F)F)c1 [Compound 2n] | – | 51.1 ± 1.77 µM | 39.4 ± 3.52 µM | – | – | –
